Drawing on US20250041305A1, “PHARMACEUTICAL COMPOSITION OF SEPIAPTERIN” (PTC Therapeutics, Inc., priority 2021, published 2025), this text covers bulk density and flow characteristics for one molecule.

A short description of the data set: Roller compaction processability observation and in-process data. The following applies: unformulated. From the text: Formulations were manufactured at 100 g scale by roller compaction using the compositions as described in Table 17. The formulations were designed to evaluate the effect of formulation variables including drug loading, ratios of diluents and levels of other excipients on the processability, as shown in Table 17.
In the tables above, BD refers to Bulk Density, DT refers to Disintegration time, HR refers to Hausner ratio and TD refers to tapped density. Disintegration time is for a 0.5-inch ribbon. The plus signs in the table refer to the following observed characteristics: “+” is soft, “++” is medium hard, “+++” is hard, and “++++” is very hard.
To improve the flow properties of the sepiapterin composition of the invention, a dry granulation approach was selected. The manufacturing process included preblending, roller compaction followed by milling, final blending, and sachet filling. The batch analyses data from the selected manufacturing process yielded acceptable drug product within the specification limit. […]

As for `C[C@H](O)C(=O)C1=Nc2c(nc(N)[nH]c2=O)NC1` [sepiapterin], the bulk density entry is recorded as “low bulk density” and the flow characteristics result is “poor flow characteristics”.
